Laboratory results as given in ChEMBL document CHEMBL1201861, “Genomics of Drug Sensitity in Cancer screening data, Wellcome Trust Sanger Institute”.

Tests used:
Assay in all cases: cells
[1] = system: COR-L105; type: functional, cell-based, Homo sapiens; conditions: Homo sapiens, COR-L105;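 further: cell growth inhibition determined with a viability assay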
Description: SANGER: Inhibition of human COR-L105 cell growth in a cell viability assay.

[2] = system: CTB-1; type: functional, cell-based; conditions: Homo sapiens
Description: SANGER: Inhibition of human CTB-1 cell growth in a cell viability assay.

[3] = system: CW-2; type: functional, cell-based, Homo sapiens; conditions: Homo sapiens, CW-2;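 further: growth inhibition of CW-2 cells, read out by a cell viability assay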
Description: SANGER: Inhibition of human CW-2 cell growth in a cell viability assay.

[4] = system: DMS-114; type: functional, cell-based, Homo sapiens; conditions: Homo sapiens, DMS-114
[5] = system: ETK-1; type: functional, cell-based, Homo sapiens; conditions: Homo sapiens, ETK-1;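 further: growth inhibition of human ETK-1 cells, read out with a cell viability assay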
Description: SANGER: Inhibition of human ETK-1 cell growth in a cell viability assay.

[6] = system: EW-18; type: functional, cell-based; conditions: Homo sapiens;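 further: growth inhibition of EW-18 cells, read out by a cell viability assay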
Description: SANGER: Inhibition of human EW-18 cell growth in a cell viability assay.

[7] = system: FaDu; type: functional, cell-based, Homo sapiens; conditions: Homo sapiens, FaDu;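 further: cell viability readout of growth inhibition in FaDu cells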
Description: SANGER: Inhibition of human FADU cell growth in a cell viability assay.

[8] = system: HCC1419; type: functional, cell-based, Homo sapiens; conditions: Homo sapiens, HCC1419;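 further: growth inhibition of human HCC1419 cells, read out as cell viability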
Description: SANGER: Inhibition of human HCC1419 cell growth in a cell viability assay.

[9] = system: HCC1954; type: functional, cell-based, Homo sapiens; conditions: Homo sapiens, HCC1954;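 further: growth inhibition of human HCC1954 cells, read out with a cell viability assay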
Description: SANGER: Inhibition of human HCC1954 cell growth in a cell viability assay.

[10] = system: HCC38; type: functional, cell-based, Homo sapiens; conditions: Homo sapiens, HCC38;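 further: cell viability assay on the human HCC38 cell line, with IC50 marking the concentration that inhibits cell growth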
Description: SANGER: Inhibition of human HCC38 cell growth in a cell viability assay.

[11] = system: Hs-578T; type: functional, cell-based, Homo sapiens; conditions: Homo sapiens, Hs-578T
Description: SANGER: Inhibition of human Hs-578-T cell growth in a cell viability assay.

[12] = system: HuP-T4; type: functional, cell-based, Homo sapiens; conditions: Homo sapiens, HuP-T4;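 further: cell viability assay measuring how much HuP-T4 cell growth is inhibited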
Description: SANGER: Inhibition of human HuP-T4 cell growth in a cell viability assay.

[13] = system: KMOE-2; type: functional, cell-based; conditions: Homo sapiens;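 further: growth inhibition of human KMOE-2 cells, read out with a cell viability assay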
Description: SANGER: Inhibition of human KMOE-2 cell growth in a cell viability assay.

[14] = system: LU-134-A; type: functional, cell-based; conditions: Homo sapiens
Description: SANGER: Inhibition of human LU-134-A cell growth in a cell viability assay.

[15] = system: M14; type: functional, cell-based, Homo sapiens; conditions: Homo sapiens, M14;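 further: growth inhibition of M14 cells, read out with a cell viability assay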
Description: SANGER: Inhibition of human M14 cell growth in a cell viability assay.

[16] = system: MCF7; type: functional, cell-based, Homo sapiens; conditions: Homo sapiens, MCF7;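 further: growth inhibition of human MCF7 cells, read out with a cell viability assay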
Description: SANGER: Inhibition of human MCF7 cell growth in a cell viability assay.

[17] = system: MS-1; type: functional, cell-based; conditions: Homo sapiens;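 further: growth inhibition of MS-1 cells, read out by cell viability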
Description: SANGER: Inhibition of human MS-1 cell growth in a cell viability assay.

[18] = system: NB10; type: functional, cell-based, Homo sapiens; conditions: Homo sapiens, NB10;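 further: growth inhibition of NB10 cells, read out by a cell viability assay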
Description: SANGER: Inhibition of human NB10 cell growth in a cell viability assay.

[19] = system: NB13; type: functional, cell-based, Homo sapiens; conditions: Homo sapiens, NB13;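 further: cell viability readout measuring growth inhibition of human NB13 cells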
Description: SANGER: Inhibition of human NB13 cell growth in a cell viability assay.

[20] = system: NB5; type: functional, cell-based, Homo sapiens; conditions: Homo sapiens, NB5;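 further: growth inhibition of NB5 cells, read out as cell viability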
Description: SANGER: Inhibition of human NB5 cell growth in a cell viability assay.

[21] = system: NB6; type: functional, cell-based, Homo sapiens; conditions: Homo sapiens, NB6;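 further: growth inhibition of NB6 cells, read out by a cell viability assay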
Description: SANGER: Inhibition of human NB6 cell growth in a cell viability assay.

[22] = system: NCI-H1299; type: functional, cell-based, Homo sapiens; conditions: Homo sapiens, NCI-H1299;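 further: growth inhibition of human NCI-H1299 cells, read out by a cell viability assay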
Description: SANGER: Inhibition of human NCI-H1299 cell growth in a cell viability assay.

[23] = system: NCI-H1437; type: functional, cell-based, Homo sapiens; conditions: Homo sapiens, NCI-H1437;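 further: growth inhibition of human NCI-H1437 cells, read out by a cell viability assay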
Description: SANGER: Inhibition of human NCI-H1437 cell growth in a cell viability assay.

[24] = system: NCI-H1581; type: functional, cell-based, Homo sapiens; conditions: Homo sapiens, NCI-H1581;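 further: cell growth inhibition read out by a viability assay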
Description: SANGER: Inhibition of human NCI-H1581 cell growth in a cell viability assay.

[25] = system: NCI-H2347; type: functional, cell-based, Homo sapiens; conditions: Homo sapiens, NCI-H2347;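 further: growth inhibition of the cell line, read out with a cell viability assay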
Description: SANGER: Inhibition of human NCI-H2347 cell growth in a cell viability assay.

[26] = system: NCI-H661; type: functional, cell-based, Homo sapiens; conditions: Homo sapiens, NCI-H661;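 further: cell viability assay read-out, IC50 being the concentration that inhibits growth of the cells by half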
Description: SANGER: Inhibition of human NCI-H661 cell growth in a cell viability assay.

[27] = system: NCI-H727; type: functional, cell-based, Homo sapiens; conditions: Homo sapiens, NCI-H727;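 further: growth inhibition of human NCI-H727 cells, read out with a cell viability assay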
Description: SANGER: Inhibition of human NCI-H727 cell growth in a cell viability assay.

[28] = system: NOS-1; type: functional, cell-based, Homo sapiens; conditions: Homo sapiens, NOS-1;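 further: growth inhibition of the human NOS-1 cell line, read out with a cell viability assay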
Description: SANGER: Inhibition of human NOS-1 cell growth in a cell viability assay.

[29] = system: NUGC-3; type: functional, cell-based, Homo sapiens; conditions: Homo sapiens, NUGC-3;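 further: growth inhibition of human NUGC-3 cells, read out with a cell viability assay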
Description: SANGER: Inhibition of human NUGC-3 cell growth in a cell viability assay.

[30] = system: PANC-08-13; type: functional, cell-based, Homo sapiens; conditions: Homo sapiens, PANC-08-13;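 further: cell growth inhibition, measured with a cell viability assay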
Description: SANGER: Inhibition of human PANC-08-13 cell growth in a cell viability assay.

[31] = system: PC-3; type: functional, cell-based, Homo sapiens; conditions: Homo sapiens, PC-3;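 further: cell viability assay measuring growth inhibition of PC-3 cells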
Description: SANGER: Inhibition of human PC-3 cell growth in a cell viability assay.

[32] = system: RCC10RGB; type: functional, cell-based, Homo sapiens; conditions: Homo sapiens, RCC10RGB;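 further: growth inhibition of human RCC10RGB cells, read out by a cell viability assay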
Description: SANGER: Inhibition of human RCC10RGB cell growth in a cell viability assay.

[33] = system: RD; type: functional, cell-based, Homo sapiens; conditions: Homo sapiens, RD
Description: SANGER: Inhibition of human RD cell growth in a cell viability assay.

[34] = system: RS4-11; type: functional, cell-based; conditions: Homo sapiens;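 further: growth inhibition of RS4-11 cells, read out by a cell viability assay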
Description: SANGER: Inhibition of human RS4-11 cell growth in a cell viability assay.

[35] = system: SBC-5; type: functional, cell-based, Homo sapiens; conditions: Homo sapiens, SBC-5;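 further: cell viability assay read-out, IC50 is the concentration that inhibits growth of the cells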
Description: SANGER: Inhibition of human SBC-5 cell growth in a cell viability assay.

[36] = system: SK-MEL-28; type: functional, cell-based; conditions: Homo sapiens;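 further: growth inhibition of human SK-MEL-28 cells, read out with a cell viability assay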
Description: SANGER: Inhibition of human SK-MEL-28 cell growth in a cell viability assay.

[37] = system: SK-PN-DW; type: functional, cell-based; conditions: Homo sapiens;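 further: growth inhibition measured with a viability assay on these cells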
Description: SANGER: Inhibition of human SK-PN-DW cell growth in a cell viability assay.

[38] = system: SW1710; type: functional, cell-based, Homo sapiens; conditions: Homo sapiens, SW1710;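 further: growth inhibition of SW1710 cells, determined with a cell viability assay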
Description: SANGER: Inhibition of human SW1710 cell growth in a cell viability assay.

[39] = system: SW 954; type: functional, cell-based, Homo sapiens; conditions: Homo sapiens, SW 954;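 further: growth inhibition of SW954 human cancer cells, read out as cell viability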
Description: SANGER: Inhibition of human SW954 cell growth in a cell viability assay.

[40] = system: A204; type: functional, cell-based, Homo sapiens; conditions: Homo sapiens, A204;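 further: growth inhibition of human A204 cells, read out with a cell viability assay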
Description: SANGER: Inhibition of human A204 cell growth in a cell viability assay.

[41] = system: A-427; type: functional, cell-based, Homo sapiens; conditions: Homo sapiens, A-427;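 further: growth inhibition of human A-427 cells, read out by a cell viability assay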
Description: SANGER: Inhibition of human A427 cell growth in a cell viability assay.

[42] = system: ALL-PO; type: functional, cell-based; conditions: Homo sapiens;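 further: growth inhibition of ALL-PO cells, read out by a cell viability assay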
Description: SANGER: Inhibition of human ALL-PO cell growth in a cell viability assay.

[43] = system: BE-13; type: functional, cell-based; conditions: Homo sapiens;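 further: growth inhibition of human BE-13 cells, measured with a cell viability assay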
Description: SANGER: Inhibition of human BE-13 cell growth in a cell viability assay.

[44] = system: CAL-120; type: functional, cell-based, Homo sapiens; conditions: Homo sapiens, CAL-120;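 further: cell growth inhibition, read out as cell viability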
Description: SANGER: Inhibition of human CAL-120 cell growth in a cell viability assay.

[45] = system: CAL-72; type: functional, cell-based, Homo sapiens; conditions: Homo sapiens, CAL-72;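 further: cell viability assay measuring inhibition of proliferation in the CAL-72 cell line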
Description: SANGER: Inhibition of human CAL-72 cell growth in a cell viability assay.

[46] = system: TE-9; type: functional, cell-based, Homo sapiens; conditions: Homo sapiens, TE-9;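 further: cell growth inhibition, measured with a cell viability readout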
Description: SANGER: Inhibition of human TE-9 cell growth in a cell viability assay.

[47] = system: U-266; type: functional, cell-based; conditions: Homo sapiens
Description: SANGER: Inhibition of human U-266 cell growth in a cell viability assay.

[48] = system: UO-31; type: functional, cell-based; conditions: Homo sapiens;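 further: cell viability assay measuring inhibition of cell growth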
Description: SANGER: Inhibition of human U031 cell growth in a cell viability assay.

[49] = system: U-251; type: functional, cell-based, Homo sapiens; conditions: Homo sapiens, U-251;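 further: growth inhibition of human U-251 cells, read out through a cell viability assay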
Description: SANGER: Inhibition of human U251 cell growth in a cell viability assay.

[50] = system: UACC-62; type: functional, cell-based, Homo sapiens; conditions: Homo sapiens, UACC-62;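 further: growth inhibition of human UACC-62 cells, read out by a cell viability assay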
Description: SANGER: Inhibition of human UACC-62 cell growth in a cell viability assay.

[51] = system: no-11; type: functional, cell-based, Homo sapiens; conditions: Homo sapiens;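 further: growth inhibition of human NO-11 cells, read out with a cell viability assay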
Description: SANGER: Inhibition of human no-11 cell growth in a cell viability assay.

[52] = system: CCRF-CEM; type: functional, cell-based; conditions: Homo sapiens;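 further: inhibition of CCRF-CEM cell growth, measured by a cell viability assay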
Description: SANGER: Inhibition of human CCRF-CEM cell growth in a cell viability assay.

[53] = system: CGTH-W-1; type: functional, cell-based, Homo sapiens; conditions: Homo sapiens, CGTH-W-1;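 further: growth inhibition of human CGTH-W-1 cells measured by cell viability assay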
Description: SANGER: Inhibition of human CGTH-W-1 cell growth in a cell viability assay.

Compound: Cc1ccc(Nc2nccc(N(C)c3ccc4c(C)n(C)nc4c3)n2)cc1S(N)(=O)=O [PAZOPANIB]
- IC50 [1]: > 8000 nM
- IC50 [2]: > 8000 nM
- IC50 [3]: > 8000 nM
- IC50 [4]: > 8000 nM
- IC50 [5]: > 8000 nM
- IC50 [6]: > 8000 nM
- IC50 [7]: > 8000 nM
- IC50 [8]: > 8000 nM
- IC50 [9]: > 8000 nM
- IC50 [10]: > 8000 nM
- IC50 [11]: > 8000 nM
- IC50 [12]: > 8000 nM
- IC50 [13]: > 8000 nM
- IC50 [14]: > 8000 nM
- IC50 [15]: > 8000 nM
- IC50 [16]: > 8000 nM
- IC50 [17]: > 8000 nM
- IC50 [18]: > 8000 nM
- IC50 [19]: > 8000 nM
- IC50 [20]: > 8000 nM
- IC50 [21]: > 8000 nM
- IC50 [22]: > 8000 nM
- IC50 [23]: > 8000 nM
- IC50 [24]: > 8000 nM
- IC50 [25]: > 8000 nM
- IC50 [26]: > 8000 nM
- IC50 [27]: 5410 nM
- IC50 [28]: 660 nM
- IC50 [29]: > 8000 nM
- IC50 [30]: > 8000 nM
- IC50 [31]: > 8000 nM
- IC50 [32]: > 8000 nM
- IC50 [33]: > 8000 nM
- IC50 [34]: > 8000 nM
- IC50 [35]: > 8000 nM
- IC50 [36]: > 8000 nM
- IC50 [37]: > 8000 nM
- IC50 [38]: 4470 nM
- IC50 [39]: > 8000 nM
- IC50 [40]: 109 nM
- IC50 [41]: 1980 nM
- IC50 [42]: > 8000 nM
- IC50 [43]: > 8000 nM
- IC50 [44]: > 8000 nM
- IC50 [45]: 5940 nM
- IC50 [46]: > 8000 nM
- IC50 [47]: > 8000 nM
- IC50 [48]: > 8000 nM
- IC50 [49]: > 8000 nM
- IC50 [50]: > 8000 nM
- IC50 [51]: > 8000 nM
- IC50 [52]: > 8000 nM
- IC50 [53]: 40 nM

Compound: CN(c1ncccc1CNc1nc(Nc2ccc3c(c2)CC(=O)N3)ncc1C(F)(F)F)S(C)(=O)=O [PF-00562271]
- IC50 [1]: > 2560 nM
- IC50 [2]: > 2560 nM
- IC50 [3]: > 2560 nM
- IC50 [4]: > 2560 nM
- IC50 [5]: 2280 nM
- IC50 [6]: > 2560 nM
- IC50 [7]: > 2560 nM
- IC50 [8]: > 2560 nM
- IC50 [9]: > 2560 nM
- IC50 [10]: > 2560 nM
- IC50 [11]: > 2560 nM
- IC50 [12]: > 2560 nM
- IC50 [13]: > 2560 nM
- IC50 [14]: > 2560 nM
- IC50 [15]: > 2560 nM
- IC50 [16]: > 2560 nM
- IC50 [17]: > 2560 nM
- IC50 [18]: > 2560 nM
- IC50 [19]: > 2560 nM
- IC50 [20]: > 2560 nM
- IC50 [21]: > 2560 nM
- IC50 [22]: > 2560 nM
- IC50 [23]: > 2560 nM
- IC50 [24]: > 2560 nM
- IC50 [25]: > 2560 nM
- IC50 [26]: > 2560 nM
- IC50 [27]: > 2560 nM
- IC50 [28]: > 2560 nM
- IC50 [29]: > 2560 nM
- IC50 [30]: > 2560 nM
- IC50 [31]: > 2560 nM
- IC50 [32]: 2330 nM
- IC50 [33]: > 2560 nM
- IC50 [34]: > 2560 nM
- IC50 [35]: > 2560 nM
- IC50 [36]: > 2560 nM
- IC50 [37]: > 2560 nM
- IC50 [38]: 1630 nM
- IC50 [39]: 2000 nM
- IC50 [40]: > 2560 nM
- IC50 [41]: > 2560 nM
- IC50 [42]: 1020 nM
- IC50 [43]: > 2560 nM
- IC50 [44]: > 2560 nM
- IC50 [45]: > 2560 nM
- IC50 [46]: > 2560 nM
- IC50 [47]: > 2560 nM
- IC50 [48]: > 2560 nM
- IC50 [49]: 1740 nM
- IC50 [50]: > 2560 nM
- IC50 [51]: > 2560 nM
- IC50 [52]: > 2560 nM
- IC50 [53]: 1620 nM
